biological target: FABP4 (Homo sapiens, UniProt P15090); experiment: TdF (Temperature Dependence Fluorescence) assay, thermal shift, FABP4; assay type: binding
Text: TdF (Temperature Dependence Fluorescence) Assay for FABP3 and FABP4
The TdF assay was mainly conducted in the 96-well based CHROMO-4 real time fluorescence plate reader (BioRad). The Sypro Orange (Sigma-Aldrich), environmentally sensitive fluorescence dye, was used to monitor the protein folding-unfolding transition. Protein-ligand binding was gauged by the change (or shift) in the unfolding transition temperature (ΔTm) acquired at protein alone with respect to protein in the presence of ligand of interest.
The compound of interest was first prepared in DMSO stock (typical concentration: 10 mM). […] Final percentage of DMSO resided in the sample was 2%. The sample plate was heated from 30° C. to 90° C. with thermal ramping rate of 1° C./min. The fluorescence signals were acquired with excitation and emission wavelengths centered at 490 and 560 nm respectively. The instrument thermal stability was ±0.2° C.
Theoretical basis for TdF-based ligand binding affinity constant
In brief, the binding constant of the ligand at the Tm is expressed as below:
[formula] where To is the midpoint of unfolding for unliganded protein and Tm is the midpoint of unfolding in presence of ligand. [LTm] is free ligand at Tm. The ΔHu and ΔCpu are the enthalpy of unfolding and heat capacity change of unfolding for the protein respectively.
The nonlinear regression fitting in general readily reaches convergence by properly constraining the initial values for the fitting parameters (e.g. the initial “guess” for the ΔHu was constrained to 120 kcal/mol; initial Yn and mn were set to 1 and zero to best represent the melting curve along the low temperature region; negative slope of −0.5 was initially chosen for mu; initial Tm was also constrained to 50° C.).
[formula] (see Brandts et al and Mayhood et al, shown above) where ΔHL (T) is the van't Hoff enthalpy of ligand binding at temperature T and ΔCpL is the heat capacity upon ligand binding. For simplicity, the ΔCpL and ΔHL (T) were set to zero and −7 kcal/mol respectively. […] TdCD (Temperature-dependent Circular Dichroism) Assay for FABP3/4/5

FABP4, sequence (P15090 whole entry, species assumed): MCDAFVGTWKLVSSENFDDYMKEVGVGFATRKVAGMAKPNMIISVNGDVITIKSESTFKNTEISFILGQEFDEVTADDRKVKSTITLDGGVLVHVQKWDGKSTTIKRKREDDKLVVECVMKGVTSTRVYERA

Structure (SMILES) | FABP4 TdF Kd | Kd
O=C(NC1(CO)CCCCC1)c1c(Cl)cccc1OCc1cc(=O)n2nc(-c3ccccc3)nc2[nH]1 [47-14] | B (0.5 ≦ B < 0.001 μM) | –
O=c1cc(COc2ccccc2)[nH]c2nc(-c3ccccc3)nn12 [1-46] | – | > 500 nM
N#Cc1cccc(OCc2cc(=O)n3nc(-c4ccccc4)nc3[nH]2)c1C1CC1 [46-2] | B (0.5 ≦ B < 0.001 μM) | –
Cc1c(Cl)cccc1OCc1cc(=O)n2nc(-c3cnccn3)nc2[nH]1 [25-5] | – | > 500 nM
Cc1cc(OCc2cc(=O)n3nc(-c4ccccc4)nc3[nH]2)n(C)n1 [1-37] | – | > 500 nM
CC1(OCc2cc(=O)n3nc(-c4ccccc4)nc3[nH]2)CCCCC1 [1-150] | B (0.5 ≦ B < 0.001 μM) | –
CN(CCc1ccccc1)C(=O)C1(OCc2cc(=O)n3nc(-c4ccccc4)nc3[nH]2)CCCCC1 [48-37] | B (0.5 ≦ B < 0.001 μM) | –
COc1cccc(C2(CNC(=O)c3c(Cl)cccc3OCc3cc(=O)n4nc(-c5ccccc5)nc4[nH]3)CCC2)c1 [47-38, 2-chloro-N-((1-(3-methoxyphenyl)cyclobutyl)methyl)-6-((7-oxo-2-phenyl-4,7-dihydro-[1,2,4]triazolo[1,5-a]pyrimidin-5-yl)methoxy)benzamide] | – | ≤ 1 nM
N#Cc1cccc(OCc2cc(=O)n3nc(-c4ccccc4)nc3[nH]2)c1Cl [45-2] | B (0.5 ≦ B < 0.001 μM) | –
O=c1cc(COc2cccc(C(F)(F)F)c2)[nH]c2nc(-c3ccccc3)nn12 [1-59] | – | > 500 nM
CCc1ccc(OCc2cc(=O)n3nc(C(=O)O)nc3[nH]2)cc1 [9-1] | – | > 500 nM
O=c1cc(CN2CCCC2Cc2ccccn2)[nH]c2nc(-c3ccccc3)nn12 (stereo not drawn) [1-139] | – | > 500 nM
CN(CCC1CC1)C(=O)C1(OCc2cc(=O)n3nc(-c4ccccc4)nc3[nH]2)CCCCC1 [48-77] | B (0.5 ≦ B < 0.001 μM) | –
O=c1cc(COc2cccc(Cl)c2[N+](=O)[O-])[nH]c2nc(-c3ccccc3)nn12 [1-134] | B (0.5 ≦ B < 0.001 μM) | –
O=C(NC1CCc2c(Cl)cccc21)C1(OCc2cc(=O)n3nc(-c4ccccc4)nc3[nH]2)CCCCC1 (stereo not drawn) [48-63] | B (0.5 ≦ B < 0.001 μM) | –
O=c1cc(CN2CCn3c(Br)nnc3C2)[nH]c2nc(-c3ccccc3)nn12 [1-109] | – | > 500 nM
Cc1c(Cl)cccc1OCc1cc(=O)n2nc(-c3cncnc3)nc2[nH]1 [25-6] | – | > 500 nM
N#Cc1c(Cl)cccc1OCc1cc(=O)n2nc(-c3ccccc3)nc2[nH]1 [1-24] | B (0.5 ≦ B < 0.001 μM) | –
O=C(NCC1(CO)CCCC1)c1ccccc1OCc1[nH]c2nc(-c3ccccc3)nn2c(=O)c1Cl [24-9] | B (0.5 ≦ B < 0.001 μM) | –
Cn1ccc(NC(=O)C2(OCc3cc(=O)n4nc(-c5ccccc5)nc4[nH]3)CCCCC2)n1 [48-33] | B (0.5 ≦ B < 0.001 μM) | –
O=C(NC1(c2ccccc2F)CC1)C1(OCc2cc(=O)n3nc(-c4ccccc4)nc3[nH]2)CCCCC1 [48-48] | B (0.5 ≦ B < 0.001 μM) | –
CC(C)(C)c1ccc(OCc2cc(=O)n3nc(-c4ccccc4)nc3[nH]2)c(Cl)c1 [1-71] | – | > 500 nM
Cc1cn(Cc2cc(=O)n3nc(-c4ccccc4)nc3[nH]2)c2cccc(Cl)c12 [1-142] | B (0.5 ≦ B < 0.001 μM) | –
CN(C)c1cccc(OCc2cc(=O)n3nc(-c4ccccc4)nc3[nH]2)c1 [1-28] | – | > 500 nM
Cc1c(Cl)cccc1NCc1cc(=O)n2ncnc2[nH]1 [4-2] | – | > 500 nM
O=c1cc(COC2CCSCC2)[nH]c2nc(-c3ccccc3)nn12 [1-79] | – | > 500 nM
O=c1c(Cl)c(COc2cccc(Cl)c2C2CCC2)[nH]c2nc(-c3ccccc3)nn12 [26-4] | B (0.5 ≦ B < 0.001 μM) | –

Structure (SMILES) | FABP4 TdF Kd | Kd
COCC1(CNC(=O)c2ccccc2OCc2cc(=O)n3nc(-c4ccccc4)nc3[nH]2)CC1 [47-64] | B (0.5 ≦ B < 0.001 μM) | –
O=C(NCC1CC1)c1ccccc1OCc1cc(=O)n2nc(-c3ccccc3)nc2[nH]1 [47-55] | B (0.5 ≦ B < 0.001 μM) | –
CN(Cc1cc(=O)n2nc(-c3ccccc3)nc2[nH]1)c1cccc(Cl)c1C1CC1 [18-3] | B (0.5 ≦ B < 0.001 μM) | –
O=c1cc(CN2CCC(Cc3cccc(F)c3)C2)[nH]c2nc(-c3ccccc3)nn12 (stereo not drawn) [1-89] | – | > 500 nM
Cc1c(Cl)cccc1OCc1[nH]c2nc(-c3ccccc3)nn2c(=O)c1Cl [3-1] | B (0.5 ≦ B < 0.001 μM) | –
Cn1nccc1NC(=O)c1ccccc1OCc1cc(=O)n2nc(-c3ccccc3)nc2[nH]1 [47-54] | B (0.5 ≦ B < 0.001 μM) | –
CCc1ccc(NCc2cc(=O)n3nc(C)nc3[nH]2)cc1 [5-7] | – | > 500 nM
CC(C)c1cccc(OCc2cc(=O)n3nc(-c4ccccc4)nc3[nH]2)c1 [1-25] | – | > 500 nM
O=C(NC1(CO)CCOCC1)C1(OCc2cc(=O)n3nc(-c4ccccc4)nc3[nH]2)CCCCC1 [48-69] | – | > 500 nM
O=C(NCC1(CO)CCCC1)C1(OCc2cc(=O)n3nc(-c4ccccc4)nc3[nH]2)CCCCC1 [48-15, N-((1-(hydroxymethyl)cyclopentyl)methyl)-1-((7-oxo-2-phenyl-4,7-dihydro-[1,2,4]triazolo[1,5-a]pyrimidin-5-yl)methoxy)cyclohexanecarboxamide] | – | ≤ 1 nM
O=C(NCC1(CO)CC1)C1(OCc2cc(=O)n3nc(-c4ccccc4)nc3[nH]2)CCCCC1 [48-54] | B (0.5 ≦ B < 0.001 μM) | –
O=C(NC1(c2cccc(Cl)c2F)CC1)C1(OCc2cc(=O)n3nc(-c4ccccc4)nc3[nH]2)CCCCC1 [48-10] | – | ≤ 1 nM
O=C(NCC1(O)CCCC1)c1c(Cl)cccc1OCc1cc(=O)n2nc(-c3ccccc3)nc2[nH]1 [47-15, 2-chloro-N-((1-hydroxycyclopentyl)methyl)-6-((7-oxo-2-phenyl-4,7-dihydro-[1,2,4]triazolo[1,5-a]pyrimidin-5-yl)methoxy)benzamide] | B (0.5 ≦ B < 0.001 μM) | –
O=c1cc(COC2CCCCC2O)[nH]c2nc(-c3ccccc3)nn12 (stereo not drawn) [1-135] | – | > 500 nM
CC1(C)CN(Cc2cc(=O)n3nc(-c4ccccc4)nc3[nH]2)c2cccc(Br)c21 [39-5] | B (0.5 ≦ B < 0.001 μM) | –
CCc1ccc(OCc2cc(=O)n3nc(-c4ccccc4)nc3[nH]2)cc1 [1-3] | B (0.5 ≦ B < 0.001 μM) | –
O=c1cc(COc2cccc3cnccc23)[nH]c2nc(-c3ccccc3)nn12 [1-75] | – | > 500 nM
CN(Cc1cc(=O)n2nc(-c3ccccc3)nc2[nH]1)C1CCCCC1 [1-15] | – | > 500 nM
O=c1cc(COc2ccc(OC(F)(F)F)cc2)[nH]c2nc(-c3ccccc3)nn12 [1-65] | – | > 500 nM
Cc1ccc(F)c2ccn(Cc3cc(=O)n4nc(-c5ccccc5)nc4[nH]3)c12 [1-141] | – | > 500 nM
CCOc1ccc(NCc2cc(=O)n3nc(-c4ccccc4)nc3[nH]2)cc1 [6-2] | – | > 500 nM
CC(C)c1ccccc1OCc1cc(=O)n2nc(-c3ccccc3)nc2[nH]1 [1-66] | B (0.5 ≦ B < 0.001 μM) | –
O=c1cc(COc2c(Cl)ccc(Cl)c2Cl)[nH]c2nc(-c3ccccc3)nn12 [1-31] | B (0.5 ≦ B < 0.001 μM) | –
CN(C(=O)c1ccccc1OCc1[nH]c2nc(-c3ccccc3)nn2c(=O)c1Cl)C1CCCCC1 [24-12] | B (0.5 ≦ B < 0.001 μM) | –
O=c1cc(COC2CCC2)[nH]c2nc(-c3ccccc3)nn12 [1-20] | – | > 500 nM
O=C(N1CCC[C@@H]1CO)C1(OCc2cc(=O)n3nc(-c4ccccc4)nc3[nH]2)CCCCC1 [48-66] | – | > 500 nM
CC1(NC(=O)c2ccccc2OCc2[nH]c3nc(-c4ccccc4)nn3c(=O)c2Cl)COC1 [24-11] | – | > 500 nM

— patent publication US8815875B2 (Merck Sharp & Dohme Corp., priority 2008, dated 2014)
